Values belong to the compound of their own block, whether it stands above or below them.
Experiments:
Abl (human) = Abl (human) (Homo sapiens, UniProt P00519); assay: Abl kinase inhibition; type: biochemical; conditions: read-out: Comparative potencies of tyrosine kinase inhibitors in c-Abl IC50
Protocol: [specific activity approx. 500 cpm/pmol, concentration as required). The reaction is initiated by the addition of the MgATP mix. After incubation for 40 minutes at room temperature, the reaction is stopped by the addition of 5 μL of a 3% phosphoric acid solution. 10 μL of the reaction is then spotted onto a P30 filtermat and washed three times for 5 minutes in 75 mM phosphoric acid and once in methanol prior to drying and scintillation counting.

[1] = test system: neurodegeneration induced by MPTP (TH-positive neurons); assay: MPTP animal model of Parkinson's disease, TH immunohistochemistry; type: in vivo, C57BL/6 mice; conditions: oral, 10 or 30 mg/kg once a day, 6 days before, on the day of and 7 days after MPTP; substantia nigra pars compacta
[2] = QT, QTc intervals and heart rate in anesthetized guinea pig; type: in vivo, Dunkin-Hartley guinea pigs; conditions: 1 mg/kg intravenous infusion over 10 min
Protocol: Male Dunkin-Hartley guinea pigs of body weight range 300-400 g were anaesthetized by intraperitoneal injection of urethane (1.5 g/kg). A tracheotomy was performed and animal was allowed to breath spontaneously throughout the experiment. The left jugular vein was catheterized using polyethylene catheter filled with heparinized saline solution (100 IU/mL) for drug administration. Electrodes were placed in lead II position and baseline ECG was recorded.
For different animals, according to body weight, doses of the compound of Formula I.b were weighed and prepared in 0.5 mL of DMSO and administered via a slow intravenous infusion administered over a period of 10 min. ECGs were recorded during and after completion of infusion up to 0.5 hr. QT and RR intervals were measured, using PowerLab 4SP® software. The data were analyzed at 1, 5, and 10 min during infusion and 5, 10, 15 and 30 min after infusion taking mean of 9 beats.

hERG K+ channel = molecular target: T1, hERG K+ channel (Homo sapiens, UniProt Q12809); assay: hERG K+ channel patch clamp in HEK293 cells; type: cell-based; conditions: for Inhibition of hERG current (in words): at the concentration tested
T1 construct: expressed in transfected cells
T1 sequence (Q12809 whole entry): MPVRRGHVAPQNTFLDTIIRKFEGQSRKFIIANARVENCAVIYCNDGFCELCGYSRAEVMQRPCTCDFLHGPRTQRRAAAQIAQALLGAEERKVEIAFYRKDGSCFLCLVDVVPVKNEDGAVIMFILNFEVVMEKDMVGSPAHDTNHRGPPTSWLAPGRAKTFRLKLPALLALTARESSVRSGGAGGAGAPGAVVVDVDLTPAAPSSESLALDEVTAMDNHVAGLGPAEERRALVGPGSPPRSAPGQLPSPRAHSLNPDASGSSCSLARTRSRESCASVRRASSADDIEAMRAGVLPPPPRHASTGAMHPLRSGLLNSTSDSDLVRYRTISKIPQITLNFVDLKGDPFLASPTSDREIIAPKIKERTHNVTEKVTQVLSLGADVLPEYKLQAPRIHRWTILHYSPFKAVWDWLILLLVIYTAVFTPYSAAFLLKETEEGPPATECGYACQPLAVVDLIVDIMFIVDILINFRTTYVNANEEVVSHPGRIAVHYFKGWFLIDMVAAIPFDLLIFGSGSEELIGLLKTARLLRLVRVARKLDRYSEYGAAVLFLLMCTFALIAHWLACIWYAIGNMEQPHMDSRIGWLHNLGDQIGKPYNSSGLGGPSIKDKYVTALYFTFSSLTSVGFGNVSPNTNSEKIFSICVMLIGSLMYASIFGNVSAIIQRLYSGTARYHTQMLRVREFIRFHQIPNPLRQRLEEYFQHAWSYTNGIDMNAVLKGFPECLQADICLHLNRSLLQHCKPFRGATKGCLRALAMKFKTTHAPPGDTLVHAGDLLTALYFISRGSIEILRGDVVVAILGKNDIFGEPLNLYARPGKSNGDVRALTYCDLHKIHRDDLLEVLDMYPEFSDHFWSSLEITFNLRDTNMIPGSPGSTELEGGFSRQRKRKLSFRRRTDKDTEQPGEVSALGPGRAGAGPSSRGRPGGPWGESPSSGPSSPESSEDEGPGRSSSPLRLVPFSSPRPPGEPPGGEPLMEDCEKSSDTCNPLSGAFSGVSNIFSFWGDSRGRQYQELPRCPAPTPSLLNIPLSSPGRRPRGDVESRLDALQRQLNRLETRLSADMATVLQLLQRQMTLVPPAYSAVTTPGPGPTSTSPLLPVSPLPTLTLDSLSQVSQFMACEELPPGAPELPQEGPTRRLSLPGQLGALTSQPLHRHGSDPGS
Protocol: The in vitro effect of the compounds of Formula I.a and I.b on ionic currents in voltage-clamped human embryonic kidney cells (HEK293) that stably express the human ether-à-go-go-related gene (hERG) was examined. Two concentrations of the compounds of Formula I.a and I.b (1 and 10 μM) were tested at near physiological temperature.
Cells were transferred to the recording chamber and superfused with vehicle control solution (HEPES-buffered physiological saline solution+1% dimethylsulfoxide+1% Bovine serum albumin). Micropipette solution for whole cell patch clamp recordings was composed of: potassium aspartate, 130 mM; MgCl2, 5 mM; EGTA, 5 mM; ATP, 4 mM; HEPES, 10 mM; pH adjusted to 7.2 with 10N KOH. Micropipette solution was prepared in batches, aliquoted, stored frozen and a fresh aliquot thawed each day. The recording was performed at a temperature of 33 to 35° C. using a combination of in-line solution pre-heater, chamber heater and feedback temperature controller. Temperature was measured using a thermistor probe in the recording chamber. Micropipettes for patch clamp recording were made from glass capillary tubing using a P-97 micropipette puller (Sutter Instruments, Novato, Calif.). A commercial patch clamp amplifier was used for whole cell recordings. Before digitization, current records were low-pass filtered at one-fifth of the sampling frequency.
Cells stably expressing hERG were held at −80 mV. Onset and steady state inhibition of hERG potassium current due to the test compounds (Formula I.a and I.b) were measured using a pulse pattern with fixed amplitudes (conditioning prepulse +20 mV for 1 s; repolarizing test ramp to −80 mV (−0.5 V/s) repeated at 5 s intervals). […] was subtracted off-line digitally from the data to determine the potency of the test compounds for hERG inhibition.

[3] = QT, QTc intervals and heart rate in conscious telemetered beagle dogs; type: in vivo; conditions: for Emesis: beagle dogs
Protocol: Compound of Formula I.a was administered via peroral (p.o.) route at three dose levels: 5, 15, and 30 mg/kg in conscious telemetered male and female beagle dogs.
(§1) Measurements of ECG parameters (QT interval, QTcb interval, QTcf interval) and heart rate were carried out and recorded over a period of 2 hour prior to drug administration (baseline), and continuously up to 24 hour post-administration. Each animal received both vehicle (placebo) and three different doses of the compound of Formula I.a on different days in a Latin square design, with a washout period of a minimum of 96 hr. On a separate day, one additional oral dosing of compound of Formula I.a was performed to assess plasma concentrations of the compound of Formula I.a at different time points, to derive pharmacokinetic (PK) parameters.
Data of ECG parameters (QT interval, QTcb interval, QTcf interval,) and heart rate were statistically compared as follows: Data of the placebo group at 0.5, 1, 1.5, 2, 3, 4, 5, 6, 8, 12, and 24 hour time points were compared with baseline data of the same group. Data of different groups treated with the compound of Formula I.a were compared with the corresponding data of the placebo group.

[4] = Plasma pharmacokinetics in beagle dogs; type: in vivo; conditions: dog, oral
Protocol: as §1

[5] = Brain/plasma pharmacokinetic study in mice; type: in vivo, C57BL6 mice
Protocol: At 1, 4 & 8 hour time points post treatment, mice were anesthetized with isoflurane and a 0.4 mL of blood was withdrawn from retro-orbital plexus into eppendorf tubes containing 8 μL sodium heparin as an anticoagulant (100 IU/ml) and transferred to ice containers. Blood samples were centrifuged immediately for 7 min at 8500 rpm, 4° C. Plasma was separated in the pre-labeled eppendorf tubes and stored at −70° C. till further analysis. Immediately thereafter, the mice were sacrificed, whole brain was removed and rinsed with ice-cold phosphate buffered saline (PBS) to remove extraneous blood and blot-dried. Brain tissue samples were weighed and homogenized in 1:2 volume of PBS using a tissue homogenizer and stored in labeled vials at −70° C. until further analysis. Concentrations of the compound of Formula I.a in brain and plasma were determined using the LC-MS technique.

[6] = human, HEK293 cells stably expressing hERG, 33 to 35° C., n=3, read-out: Mean percent inhibition of hERG current

Sequence of Abl (human) (P00519 whole entry): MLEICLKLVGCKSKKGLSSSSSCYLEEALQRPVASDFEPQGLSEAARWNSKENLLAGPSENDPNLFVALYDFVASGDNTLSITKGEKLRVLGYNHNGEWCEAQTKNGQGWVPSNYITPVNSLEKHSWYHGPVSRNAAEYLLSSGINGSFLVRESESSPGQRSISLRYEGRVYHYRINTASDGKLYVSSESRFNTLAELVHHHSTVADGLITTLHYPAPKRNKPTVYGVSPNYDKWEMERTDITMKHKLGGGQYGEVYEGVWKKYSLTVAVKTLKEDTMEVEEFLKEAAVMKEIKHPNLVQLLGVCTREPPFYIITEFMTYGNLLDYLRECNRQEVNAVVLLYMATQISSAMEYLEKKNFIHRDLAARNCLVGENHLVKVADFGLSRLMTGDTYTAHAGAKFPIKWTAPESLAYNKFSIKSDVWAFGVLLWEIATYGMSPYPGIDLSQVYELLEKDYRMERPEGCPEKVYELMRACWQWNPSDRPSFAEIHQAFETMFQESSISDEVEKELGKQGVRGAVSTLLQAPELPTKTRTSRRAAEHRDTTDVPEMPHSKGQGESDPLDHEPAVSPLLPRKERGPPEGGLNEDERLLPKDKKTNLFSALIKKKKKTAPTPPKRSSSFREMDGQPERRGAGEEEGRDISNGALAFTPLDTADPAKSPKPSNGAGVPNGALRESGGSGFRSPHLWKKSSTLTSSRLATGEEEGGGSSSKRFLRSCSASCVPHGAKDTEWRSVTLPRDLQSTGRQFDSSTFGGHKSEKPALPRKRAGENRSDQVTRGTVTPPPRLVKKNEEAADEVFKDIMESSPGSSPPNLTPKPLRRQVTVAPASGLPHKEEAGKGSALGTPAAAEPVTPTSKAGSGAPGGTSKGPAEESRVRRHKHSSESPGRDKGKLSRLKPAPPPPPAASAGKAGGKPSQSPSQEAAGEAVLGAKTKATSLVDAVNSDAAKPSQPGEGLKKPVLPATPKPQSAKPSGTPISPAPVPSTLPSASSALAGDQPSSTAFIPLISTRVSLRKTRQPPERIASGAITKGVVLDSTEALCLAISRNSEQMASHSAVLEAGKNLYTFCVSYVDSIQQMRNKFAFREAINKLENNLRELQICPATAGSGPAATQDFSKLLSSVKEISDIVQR

IC50 (Abl (human)): 0.6 nM
Structure (SMILES): Cc1ccc(C(=O)NNC(=O)c2c(C)cccc2Cl)cc1C#Cc1ccc(NC(=O)C2CC2)nc1 [Compound I.b, Cyclopropanecarboxylic acid (5-{5-[N′-(2-chloro-6-methylbenzoyl)hydrazinecarbonyl]-2-methyl-phenylethynyl}-pyridin-2-yl)amide]
Prevention of neurodegeneration induced by MPTP (TH-positive neurons, percentage area, integrated density) [1]: significantly prevented the neurodegeneration induced by MPTP
Change in QT intervals [2]: no change in QT intervals
Inhibition of hERG current (in words) (hERG K+ channel): did not show any significant inhibition of hERG current
inhibition at 0.3 µM (hERG K+ channel; human, HEK293 cells stably expressing hERG, 0.3 μM, 33 to 35° C., n=3, read-out: Mean percent inhibition of hERG current): 5.6%
inhibition at 1 µM (hERG K+ channel; [6]): 12.9%
inhibition at 3 µM (hERG K+ channel; human, HEK293 cells stably expressing hERG, 3 μM, 33 to 35° C., n=3, read-out: Mean percent inhibition of hERG current): 25%

AUC(0-inf) ([4]; 5 mg/kg): 1920 to 4820 ng·h/mL
Cmax ([4]; 5 mg/kg): 1220 to 2030 ng/mL
AUC(0-inf) ([4]; 15 mg/kg): 6780 to 12800 ng·h/mL
Cmax ([4]; 15 mg/kg): 2720 to 5320 ng/mL
AUC(0-inf) ([4]; 30 mg/kg): 25900 to 46700 ng·h/mL
Cmax ([4]; 30 mg/kg): 9820 to 9970 ng/mL
Brain to plasma ratio as compared to nilotinib or dasatinib ([5]; oral 30 mg/kg): significantly higher
Structure (SMILES): Cc1ccc(C(=O)NNC(=O)c2c(C)cccc2Cl)cc1C#Cc1cnc2ccccc2c1 [Compound I.a, N′-(2-Chloro-6-methylbenzoyl)-4-methyl-3-[2-(3-quinolyl)ethynyl]-benzohydrazide]
Emesis ([3]; p.o., 30 mg/kg, at 14 min following dosing): Emesis occurred in two animals
Emesis ([3]; p.o., 5 and 15 mg/kg): No emesis was observed
Change in ECG morphology ([3]; conscious beagle dogs, any dose level): no change in ECG morphology
Heart rate ([3]; conscious beagle dogs, p.o., 5 and 15 mg/kg): remained unchanged
Effect on QT, QTcb, QTcf durations compared with placebo ([3]; conscious beagle dogs, p.o., 5 and 15 mg/kg, up to 24 hour): no effects
Effect on cardiovascular functions ([3]; conscious beagle dogs, single oral administration up to 15 mg/kg): no effect on cardiovascular functions
Prevention of neurodegeneration induced by MPTP (TH-positive neurons, percentage area, integrated density) [1]: significantly prevented the neurodegeneration induced by MPTP
Inhibition of hERG current (in words) (hERG K+ channel): did not show any significant inhibition of hERG current
inhibition at 1 µM (hERG K+ channel; [6]): 2.1 ± 0.4%
inhibition at 10 µM (hERG K+ channel; human, HEK293 cells stably expressing hERG, 10 μM, 33 to 35° C., n=3, read-out: Mean percent inhibition of hERG current): 9.7 ± 0.4%

Plasma conc. ([5]; oral, I.a 30 mg/kg, nilotinib 100 mg/kg, dasatinib 30 mg/kg, 8 hr): BQL
Structure (SMILES): Cc1nc(Nc2ncc(C(=O)Nc3c(C)cccc3Cl)s2)cc(N2CCN(CCO)CC2)n1 [Dasatinib, dasatinib, reference compound]

— US11813252B2, “Treatment for Parkinson's disease” (SUN PHARMA ADVANCED RESEARCH COMPANY LTD., priority 2016, dated 2023)
